Data set [1] relates to hyaluronan synthetase gene (HAS1) in normal human epidermal keratinocyte. In words: Test for confirming expression-increasing effect of epidermal hyaluronan synthetase gene. It counts as cell-based. The following applies: 0.2% by mass in medium, 24 hours; qPCR, ACTB internal standard; FIG. 5. The protocol:
Normal human epidermal keratinocyte (produced by Kurabo Industries Ltd.) was inoculated in a 24-well plate at […] cells/well, and incubated overnight at 37° C. in a 5% CO2 environment. The culture medium was exchanged with a medium containing 0.2% by mass of Compound 1, or glycerol (produced by Wako Pure Chemical Industries, Ltd.) and cultured at 37° C. in a 5% CO2 environment for 24 hours.
Using a mRNA recovery kit (FastLane Cell SYBR Green Kit, produced by Qiagen N.V.), mRNA was extracted by a conventional method. Using a qPCR kit (One Step SYBR PrimeScript RT-PCR Kit II, produced by Takara Bio Inc.), the expression level of the hyaluronan synthetase gene (HAS 1) was analyzed by qPCR using ACTB as an internal standard (7500 Real-Time PCR System, produced by Applied Biosystems). Data analysis was carried out by the ΔΔCt method.
The respective relative values were calculated with respect to the expression level of the gene in a medium not containing Compound 1 and glycerol (non-addition group) as 1.
In general terms: In qPCR the cycle at which signal appears reflects the starting amount.

The nature of data set [2]: Moisture absorbing property confirmation test. In kind it is physicochemical. The conditions noted are these: humidity 75%, 25° C. The protocol:
Compound 1 was precisely weighed in a 1 g weighing bottle, left in a desiccator with a humidity at 75% (a saturated aqueous solution of sodium chloride) in an open state, and stored at 25° C. The weight was measured from the start of the storage until 30 days thereafter, and the coefficient of moisture absorption was determined by the following formula. Coefficient of moisture absorption (%)=(M3−M2)/(M2−M1)×100
M1: The mass of the weighing bottle (g)
M2: The mass of the weighing bottle containing a sample at the start of the storage (g)
M3: The mass of the weighing bottle containing the sample after the storage (g)

Experimental findings from US10813859B2, “Wrinkle ameliorating agent” (POLA CHEMICAL INDUSTRIES, INC., priority 2016, dated 2020) are described below.

For the molecule `OCC(O)CO` [glycerol, reference compound], the “expression level of the hyaluronan synthetase gene (HAS 1) compared to the non-addition group” value in data set [1] is recorded as “no significant difference”.
In the case of `OCC(O)COC1CCCCC1` (centres unmarked) [Compound 1, 3-cyclohexyloxy-1,2-propanediol], the moisture absorbing property result in data set [2] (up to 30 days) is “confirmed”. Moreover, the “Coefficient of moisture absorption (mean value, n = 3)” value in data set [2] (storage time 1 day) was found to be 13.2%; in data set [2] (storage time 3 days) it was 19.0%; in data set [2] (storage time 7 days) it was 20.5%; in data set [2] (storage time 14 days), 21.0%; in data set [2] (storage time 30 days) it was 21.2%. The “expression level of the hyaluronan synthetase gene (HAS 1) compared to the non-addition group” value in data set [1] is “significantly larger”.
